Assay in all cases: DTP human tumour cell line panel, 48 h
For assay [1], the system named is NCI-H226 lung.
Assay [2] concerns SF-539 CNS.
Assay [3] concerns T-47D breast.
Assay [4] has as its system A498 renal.
The test system of assay [5] is RPMI-8226 leukemia.
The subject of assay [6] is K-562 leukemia.
The subject of assay [7] is A549 NSCLC.
For assay [8], the system named is OVCAR-5 ovarian.
The subject of assay [9] is UACC-257 melanoma.
Assay [10] has as its system HCT-116 colon.

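In this assay, cells in 96-well plates receive the compound at five concentrations for 48 hours. Endpoints are linearly interpolated between the surrounding concentrations. Here, GI50 denotes the concentration required for 50% inhibition of growth. TGI: concentration producing complete growth inhibition.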

In general, GI50 refers to the concentration giving 50% growth inhibition. As usually defined, the TGI is the concentration giving total growth inhibition. Low readings indicate more potent growth arrest, high ones less potent growth arrest. For the compound `CC/C=C\CCC/C=C1/C(=O)C=C[C@@H]1C/C=C\CCCC(=O)O`, the GI50 in [1] was 4.35 µM; in assay [2], 3.52 µM; in assay [3], 10.1 µM; in assay [4], 18.4 µM; in assay [5], 3.28 µM; in assay [6], 2.5 µM. Also, the GI50 in assay [7] is 12.8 µM; in [8], 4.85 µM; in assay [9] it was 10.5 µM; in assay [10] it was 2.53 µM. In addition, the TGI turned out to be 30.1 µM in [1]; 12.4 µM in assay [2]; 23.3 µM in assay [3]; 33.9 µM in assay [4]; 11 µM in assay [5]; 37.9 µM in assay [6]. Further, the total growth inhibition concentration (TGI) came out at 32.7 µM in assay [7], 15.3 µM in assay [8], 23.7 µM in assay [9] and 5.79 µM in [10].
Turning to `CC(=O)/C(C)=N/N/C(N)=N\S(=O)(=O)c1cc(C(=O)Nc2ccccc2)c(Cl)cc1SCc1ccccc1`, the GI50 in [1] was 66.7 µM; in assay [2], 2.79 µM; in assay [3], above 100 µM; in assay [4], 55.9 µM; in assay [5], 7.01 µM; in assay [6] it was 5.54 µM. Further, the GI50 in [7] is 30.5 µM; in assay [8], above 100 µM; in assay [9] it was 34.8 µM; in assay [10], 0.337 µM. In addition, the concentration for total growth inhibition (TGI) in assay [1] was above 100 µM; in assay [2], 8.05 µM; in [3] it was above 100 µM; in [4], above 100 µM; in assay [5], above 100 µM; in [6], above 100 µM. Besides, the TGI in [7], in assay [8], in assay [9] and in [10] was above 100 µM throughout.
As to `CCNCCNc1cc(-c2ccc(F)cc2)c(C#N)c2nc3ccccc3n12`, the GI50 in assay [1] is 12 µM; in [2] it was 1.7 µM; in assay [3], 2.26 µM; in assay [4] it was 4.79 µM; in assay [5], 2.86 µM; in [6], 2.15 µM. For the same compound, the GI50 in assay [7] was 4.78 µM; in [8], 4.45 µM; in assay [9], 2.1 µM; in assay [10], 2.24 µM. Also, the concentration for total growth inhibition (TGI) in assay [1] was determined as 27 µM; in assay [2], 3.24 µM; in [3], 4.63 µM; in assay [4] it was 17.2 µM; in [5], 7.58 µM; in assay [6] it was 4.64 µM. The total growth inhibition concentration (TGI) stood at 15.4 µM in [7], 15.9 µM in assay [8], 3.82 µM in assay [9] and 4.34 µM in assay [10].
Consider `COc1cc(C2C(C#N)=C(N)OC3=C2C(=O)c2ccccc2C3=O)cc(OC)c1OC` (stereo not given), for which the GI50 is 1.39 µM in [1]; 0.344 µM in [2]; 3.72 µM in [3]; 0.327 µM in assay [4]; 1.36 µM in assay [5]; 0.415 µM in [6]. For the same compound, the GI50 in assay [7] is 1.32 µM; in assay [8] it was 4.26 µM; in assay [9] it was 1.18 µM; in assay [10], 0.43 µM. Moreover, the concentration for total growth inhibition (TGI) is 23.7 µM in assay [1]; 4.56 µM in [2]; 20.4 µM in assay [3]; 11.8 µM in assay [4]; 33.5 µM in assay [5]; above 100 µM in assay [6]. Besides, the TGI is 29.6 µM in assay [7], 18.6 µM in [8], 13.3 µM in assay [9] and 30.6 µM in [10].
As for `O=C(NNS(=O)(=O)c1cc(C(F)(F)F)cc(C(F)(F)F)c1)c1cnn(-c2ccc(Cl)cc2)c1C(F)(F)F`, the GI50 is 20.7 µM in [1]; 18.4 µM in assay [2]; 17.5 µM in [3]; 14.1 µM in assay [4]; 13.3 µM in [5]; 23.1 µM in assay [6]. The GI50 in [7] is 13.7 µM; in assay [8], 17.8 µM; in assay [9] it was 15.2 µM; in assay [10] it was 15.5 µM. Further, the TGI came to 54.3 µM in [1]; 33.5 µM in [2]; 45 µM in assay [3]; 29.3 µM in assay [4]; 33.1 µM in assay [5]; 65.7 µM in assay [6]. The concentration for total growth inhibition (TGI) in assay [7] was found to be 33.2 µM; in assay [8], 33.5 µM; in assay [9] it was 43.7 µM; in assay [10], 29.6 µM.
With `Oc1ccccc1-n1c(-c2ccccc2)ccc1-c1ccccc1`, the GI50 in assay [1] is 8.69 µM; in assay [2], 15.2 µM; in assay [3] it was 4.12 µM; in assay [4], 7.49 µM; in assay [5], 3.71 µM; in [6], 5.17 µM. In addition, the GI50 in assay [7] was 4.62 µM; in [8], 15.2 µM; in assay [9] it was 4.2 µM; in assay [10] it was 4.71 µM. For the same compound, the TGI in [1] came out at 21.9 µM; in assay [2], 31.9 µM; in [3], 32.9 µM; in [4], 35.8 µM; in [5], 17.9 µM; in assay [6] it was 64.3 µM. In addition, the TGI came to 19.6 µM in assay [7], 48.7 µM in assay [8], 27.3 µM in assay [9] and 16.6 µM in assay [10].
For the compound `C[Se]C(=O)CC1=C2C=C(F)C=CC2/C(=C\c2ccc(S(C)=O)cc2)C1C` (stereo not given), the concentration for 50% growth inhibition (GI50) was below 0.0164 µM in assay [1]; 0.0371 µM in [2]; 2.94 µM in [3]; 0.0422 µM in assay [4]; 2.31 µM in assay [5]; 1.36 µM in assay [6]. Moreover, the concentration for 50% growth inhibition (GI50) in assay [7] is 0.0257 µM; in assay [8] it was 0.114 µM; in [9], 0.0875 µM; in assay [10], 0.119 µM. The TGI in assay [1] is 0.317 µM; in assay [2] it was 0.0923 µM; in assay [3], above 34 µM; in assay [4], 0.192 µM; in assay [5] it was 6.15 µM; in assay [6], above 100 µM. Also, the TGI in assay [7] came to 2.66 µM; in [8], 1.49 µM; in assay [9], 2.42 µM; in assay [10], 1.64 µM.

Values taken from PubChem BioAssay (NCI).
